Laboratory results from publication PMC9594046, “Identification of Histone Peptide Binding Specificity and Small-Molecule Ligands for the TRIM33α and TRIM33β Bromodomains” (ACS Chemical Biology, 2022).
Positions count from the first letter of the chain named.

Tests used:
[1] = target: BRPF1 BRD; conditions: read-out: BRPF Kd (ITC); cited from earlier work
[2] = target: TRIM24 BRD; conditions: read-out: TRIM24 Kd (ITC); cited from earlier work
[3] = target: T1, TRIM24 PHD-BRD (Homo sapiens, UniProt O15164); experiment: AlphaScreen dose-response displacement of biotinylated H3 peptide
T1 sequence (O15164 with tags, fused parts or gaps): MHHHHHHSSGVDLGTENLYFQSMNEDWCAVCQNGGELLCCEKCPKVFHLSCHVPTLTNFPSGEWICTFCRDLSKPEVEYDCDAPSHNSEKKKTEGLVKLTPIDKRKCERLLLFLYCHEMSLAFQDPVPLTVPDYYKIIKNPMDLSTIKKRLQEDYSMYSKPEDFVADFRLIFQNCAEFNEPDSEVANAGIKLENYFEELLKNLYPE
Experimental: (§5) To establish an AlphaScreen assay,[13],[50],[51] the PHD-BRD cassettes of TRIM24 and both TRIM33 isoforms were expressed with an N-terminal His6 tag attached (CD spectra for these constructs are shown in Figure S9).
(§6) Assay buffer was freshly prepared each day by supplementing HEPES buffer with BSA, the pH was
(§7) adjusted to 7.6 and filter sterilized through a 0.22 µm filter, and stored at 4 °C until use.
(§8) steps, the plate was sealed, shaken for 10 sec at 600 rpm on a plate oscillator, and incubated at room
(§9) in triplicate, as point concentrations or serial buffer dilutions from 50 mM DMSO solutions.
(§10) peptide mix (7 µL) was dispensed into each well using a Thermo-Fisher electronic multi-channel
(§11) pipette, and incubated for 30 min. AlphaScreen bead mix (8 µL; 25 µg/mL of acceptor and donor beads)
(§12) was added to each well, taking adequate precautions to avoid light exposure, before being incubated for
(§13) 1 h. The plate was read using a Synergy™ 2 MultiMode Microplate Reader using the built-in
(§14) Single shot screening was performed in triplicate.
(§15) <0.5% DMSO. Inhibition is reported as a reduction in signal arising from peptide-bromodomain
(§16) interaction, normalised to a DMSO control. Signal response curves were obtained for peptides or
(§17) compounds in triplicate, with serial 1:2 dilutions. Samples containing buffer or DMSO in place of
(§18) compound were included in all assays for normalisation. Data were processed by fitting a four-
(§19) parameter equation shown below to calculate IC50 values using GraFit version 7.0.32 or GraphPad Prism
(§20) 𝑌 = 𝑀𝑖𝑛𝑖𝑚𝑢𝑚 + 𝑀𝑎𝑥𝑖𝑚𝑢𝑚 − 𝑚𝑖𝑛𝑖𝑚𝑢𝑚 ,𝑤ℎ𝑒𝑟𝑒 𝑋 = log (𝑐𝑜𝑚𝑝𝑜𝑢𝑛𝑑 𝑐𝑜𝑛𝑐𝑒𝑛𝑡𝑟𝑎𝑡𝑖𝑜𝑛) 1 + 10("#$%&!"’()(*+,, .,/01)
(§21) Assay buffer was prepared as above. For incubation steps, the plate was sealed, shaken for 10 sec at
(§22) 600 rpm on a plate oscillator, and incubated at room temperature in the dark. Peptides (5 µL) were
(§23) dilutions from 100 µM HEPES buffer stock solutions. Protein (7 µL) was dispensed into each well
(§24) using a Thermo-Fisher electronic multi-channel pipette, and incubated for 30 min. AlphaScreen bead
(§25) mix (8 µL; 25 µg/mL of acceptor and donor beads) was added to each well, avoiding light exposure,
(§26) before being incubated for 1 h. The plate was read using a Synergy™ 2 MultiMode Microplate Reader
(§27) Ni2+ chelate acceptor and streptavidin donor beads were prepared as a mixture in a 1:300 or 1:400
(§28) dilution as required (0.005–0.007 mg/mL FAC); biotinylated peptide employed, and final assay
(§29) concentrations were as detailed in table below. Assay well volume was 20 µL.
(§30) Peptides were supplied as 1–9 mg quantities with >95% purity (as determined by HPLC; Cambridge
(§31) Research Biochemicals or Genscript). Residual water and counter ions were predicted to comprise 20%
(§32) of the net mass, and peptides were dissolved to 10, 1.0, and 0.1 mM stocks in buffer (50 mM HEPES,
(§33) 500 mM NaCl; pH 7.6) before being stored at -80 °C in 5 µL aliquots. A terminal tyrosine residue was
(§34) incorporated into the peptide structure to allow for accurate quantification of concentration.

[4] = target: T2, TRIM33α PHD-BRD (Homo sapiens, UniProt Q9UPN9); experiment: as above; conditions: for IC50: TRIM33α IC50 (AlphaScreen)
T2 sequence (Q9UPN9 888-1127): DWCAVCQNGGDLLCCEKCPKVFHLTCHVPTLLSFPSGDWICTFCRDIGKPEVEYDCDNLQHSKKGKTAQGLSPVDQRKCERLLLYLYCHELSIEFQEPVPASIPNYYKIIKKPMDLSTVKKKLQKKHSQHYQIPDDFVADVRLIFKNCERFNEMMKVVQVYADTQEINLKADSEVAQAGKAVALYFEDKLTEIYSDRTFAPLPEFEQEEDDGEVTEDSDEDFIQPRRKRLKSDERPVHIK
Experimental: as §5, §6, §7, §8, §9, §10, §11, §12, §13, §14, §15, §16, §17, §18, §19, §20, §21, §22, §23, §24, §25, §26, §27, §28, §29, §30, §31, §32, §33, §34

[5] = target: T3, TRIM33β PHD-BRD (Homo sapiens, UniProt Q9UPN9); experiment: Isothermal titration calorimetry (ITC); format: binding; parameters: The TRIM33β cassette (residues 888–1127) was expressed; made in house; host or cells: E. coli BL21 (DE3) Gold; conditions: cell 40 µM compound, syringe 316 µM TRIM33β
T3 sequence (Q9UPN9 888-1110 isoform Q9UPN9-2 limits assumed): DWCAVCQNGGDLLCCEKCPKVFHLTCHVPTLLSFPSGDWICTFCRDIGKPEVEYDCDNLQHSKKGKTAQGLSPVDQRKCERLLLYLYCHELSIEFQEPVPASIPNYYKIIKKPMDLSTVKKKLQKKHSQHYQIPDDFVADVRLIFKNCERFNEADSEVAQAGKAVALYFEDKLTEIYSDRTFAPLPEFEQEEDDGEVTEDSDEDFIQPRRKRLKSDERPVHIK
Description: The first data point was excluded from the analysis.
(1 picture or pasted object on this page, not shown here)

[6] = test system: TRIM33; parameters: method as in earlier work; conditions: isoform later confirmed to be TRIM33α; read-out: reported TRIM33 IC50 (AlphaScreen); cited from earlier work
[7] = target: T3, TRIM33β PHD-BRD; experiment: AlphaScreen dose-response displacement of biotinylated H3 peptide
Experimental: as §5, §6, §7, §8, §9, §10, §11, §12, §13, §14, §15, §16, §17, §18, §19, §20, §21, §22, §23, §24, §25, §26, §27, §28, §29, §30, §31, §32, §33, §34

[8] = target: T4, TRIM24 N980F (Homo sapiens, UniProt O15164, N980F); experiment: Qualitative WaterLOGSY binding; parameters: key: ✓: √ is assigned to compounds that showed binding; ? is assigned when the result was ambiguous; × is assigned when no-binding was observed; conditions: 500 µM compound, 20 µM protein
T4 sequence (O15164 825-1007 N980F limits assumed): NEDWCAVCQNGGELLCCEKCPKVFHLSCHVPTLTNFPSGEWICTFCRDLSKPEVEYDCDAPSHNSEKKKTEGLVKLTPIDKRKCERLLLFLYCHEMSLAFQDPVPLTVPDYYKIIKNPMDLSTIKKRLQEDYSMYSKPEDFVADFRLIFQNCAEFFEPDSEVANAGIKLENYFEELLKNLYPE
Experimental: (§1) To investigate where these compounds bind on the TRIM24 or 33 PHD-BRD cassette, we performed waterLOGSY experiments using the wild-type and mutant reader domains (Table 4).
(§2) Table S19. WaterLOGSY buffer composition (10 mM Na/K phosphate buffer, PBS, pH 7.6).
(§3) Reagent Amount required per litre (g)
(§4) The buffer was filtered under vacuum through a 0.2 µm filter paper (Sartorius UK) before use and stored at 4 °C. Proteins were buffer exchanged from HEPES storage buffer into PBS buffer (0.9% NaCl, pH 7.6) using GE Healthcare PD SpinTrap G-25 columns. For each compound, a water-suppressed 1H spectrum was recorded as a reference, followed by waterLOGSY spectra of the compound in the absence and presence of the specified protein. Samples were prepared to a total sample volume of 160 µL in PBS buffer (pH 7.6), with 500 µM compound (unless otherwise specified) from 50 mM DMSO-D6 stock solutions, 10% D2O for signal locking, and 20 µM protein (unless otherwise specified) for samples with protein. After loading into 3 mm Hilgenberg NMR tubes for Bruker Match™ system, samples were briefly centrifuged in a manual benchtop rotor. Spectra were recorded on a Bruker AVIII 700 MHz spectrometer with inverse TCI cryoprobe using a standard waterLOGSY pulse sequence.4 Peaks were assigned using DMSO-D6 as a reference peak at 2.5 ppm.

[9] = target: T5, TRIM33β N1039F (Homo sapiens, UniProt Q9UPN9, N1039F); experiment: Qualitative WaterLOGSY binding; parameters: key: ✓: √ is assigned to compounds that showed binding; ? is assigned when the result was ambiguous; × is assigned when no-binding was observed; conditions: 500 µM compound, 20 µM protein
T5 construct: The TRIM33β cassette (residues 888–1127) was expressed; made in house; host or cells: E. coli BL21 (DE3) Gold
T5 sequence (Q9UPN9 888-1110 isoform Q9UPN9-2 N1039F): T3 sequence (Q9UPN9 888-1110 isoform Q9UPN9-2 limits assumed) with N152F
Experimental: as §1, §2, §3, §4

[10] = target: T6, TRIM33α WT (Homo sapiens, UniProt Q9UPN9); experiment: Qualitative WaterLOGSY binding; parameters: key: ✓: √ is assigned to compounds that showed binding; ? is assigned when the result was ambiguous; × is assigned when no-binding was observed; conditions: 500 µM compound, 20 µM protein
T6 construct: The TRIM33β cassette (residues 888–1127) was expressed; made in house; host or cells: E. coli BL21 (DE3) Gold
T6 sequence (Q9UPN9 888-1127): T2 sequence (Q9UPN9 888-1127)
Experimental: as §1, §2, §3, §4

[11] = target: T7, TRIM33α N1039F (Homo sapiens, UniProt Q9UPN9, N1039F); experiment: Qualitative WaterLOGSY binding; parameters: key: ✓: √ is assigned to compounds that showed binding; ? is assigned when the result was ambiguous; × is assigned when no-binding was observed; conditions: 500 µM compound, 20 µM protein
T7 construct: The TRIM33β cassette (residues 888–1127) was expressed; made in house; host or cells: E. coli BL21 (DE3) Gold
T7 sequence (Q9UPN9 888-1127 N1039F): T2 sequence (Q9UPN9 888-1127) with N152F
Experimental: as §1, §2, §3, §4

[12] = target: T8, TRIM24 WT (Homo sapiens, UniProt O15164); experiment: Qualitative WaterLOGSY binding; parameters: key: ✓: √ is assigned to compounds that showed binding; ? is assigned when the result was ambiguous; × is assigned when no-binding was observed; conditions: 500 µM compound, 20 µM protein
T8 construct: His6-TRIM24 (BRD-PHD); made in house; host or cells: E. coli BL21 (DE3) Gold
T8 sequence (O15164 with tags, fused parts or gaps): T1 sequence (O15164 with tags, fused parts or gaps)
Experimental: as §1, §2, §3, §4

[13] = target: T9, TRIM33β WT (Homo sapiens, UniProt Q9UPN9); experiment: Qualitative WaterLOGSY binding; parameters: key: ✓: √ is assigned to compounds that showed binding; ? is assigned when the result was ambiguous; × is assigned when no-binding was observed; conditions: 500 µM compound, 20 µM protein
T9 construct: The TRIM33β cassette (residues 888–1127) was expressed; made in house; host or cells: E. coli BL21 (DE3) Gold
T9 sequence (Q9UPN9 888-1110 isoform Q9UPN9-2 limits assumed): T3 sequence (Q9UPN9 888-1110 isoform Q9UPN9-2 limits assumed)
Description: To determine whether compounds 3–7 are genuine ligands for TRIM33, we employed an AlphaScreen TruHits screen.[58] The TruHits screen includes streptavidin-coated donor beads and biotinylated acceptor beads, which interact to generate a signal. Compounds that interfere with this control signal, such as fluorescence quenchers, insoluble light scatterers, ^1O2 quenchers, and biotin mimetics, can be identified using this approach. In the TruHits screen,[59] significant assay interference was observed from all five compounds (3–7, Table S21), meaning that AlphaScreen data generated for these compounds are unreliable. We therefore sought to investigate TRIM33 binding of compounds 3 and 4 using ITC and waterLOGSY approaches (Figures S3–6). These compounds were selected as they have a range of reported IC50 values for TRIM33. […] To determine whether these compounds are weak binders to TRIM33β, we subjected them to a waterLOGSY assay against TRIM33β. […] However, the use of different protein isoforms may account for some of the observed discrepancies.
as §1, §2, §3, §4

[14] = peptide in assay H31-27K9Me3 (PHD)
[15] = peptide in assay H31-27K9Me3K18Ac (DUAL)
[16] = peptide in assay H31-27K18Ac (BRD)
[17] = TRIM24 IC50 (AlphaScreen), peptide in assay H31-27K9Me3 (PHD)
[18] = TRIM24 IC50 (AlphaScreen), peptide in assay H31-27K9Me3K18Ac (DUAL)
[19] = TRIM24 IC50 (AlphaScreen), peptide in assay H31-27K18Ac (BRD)

Row | IC50 [7, 14] | IC50 [7, 15] | IC50 [7, 16] | IC50 [3, 17] | IC50 [3, 18] | IC50 [3, 19] | IC50 [4, 14] | IC50 [4, 15] | IC50 [4, 16] | WaterLOGSY binding TRIM24 N980F [8] | WaterLOGSY binding TRIM33β N1039F [9] | WaterLOGSY binding TRIM33α WT [10] | WaterLOGSY binding TRIM33α N1039F [11] | WaterLOGSY binding TRIM24 WT [12] | WaterLOGSY binding TRIM33β WT [13] | SMILES | further results
1 | – | – | – | – | – | – | – | – | – | – | – | – | – | – | – | COc1ccc(Oc2cc3c(cc2NS(=O)(=O)c2ccc(OC)c(OC)c2)n(C)c(=O)n3C)cc1 [Compound 2] | Kd [1]: 0.137 µM; Kd [2]: 0.222 µM; IC50 ([3]; IC50 binding to the TRIM24 BRD-PHD (AlphaScreen), displacement of H3_1–27K18Ac): 0.219 µM; displacement of H3_1–27K18Ac from TRIM33α (AlphaScreen) [4]: not for either isoform of TRIM33
2 | 1.4 µM | 1.82 µM | 1.49 µM | 1.86 µM | 1.46 µM | 1.76 µM | 1.89 µM | 1.15 µM | 1.58 µM | – | – | – | – | – | – | COc1ccc(Nc2c(-c3[nH]cnc3C)nc3ccc(Br)cn23)cc1 [Compound 3] | binding to TRIM33β by ITC [5]: Neither compound showed binding; IC50 [6]: 0.538 µM
3 | > 250 µM | 58.7 µM | 55.3 µM | 52 µM | 23.1 µM | 18.6 µM | > 250 µM | > 250 µM | > 250 µM | – | – | – | – | – | – | Cc1nc[nH]c1-c1nc2ccccn2c1NCCN1CCOCC1 [Compound 4] | binding to TRIM33β by ITC [5]: Neither compound showed binding; IC50 [6]: 3.78 µM
4 | 3.37 µM | 3.11 µM | 3.16 µM | 3.57 µM | 3.32 µM | 4.21 µM | 2.71 µM | 1.68 µM | 2.74 µM | – | – | – | – | – | – | Cc1nc[nH]c1-c1nc2ccccn2c1NC1CCCCC1 [Compound 5] | –
5 | 6.69 µM | 8.86 µM | 7.91 µM | 17.1 µM | 11.1 µM | 20 µM | > 250 µM | 75.1 µM | 16.6 µM | – | – | – | – | – | – | COC(=O)c1ccc2nc(-c3c[nH]c(C)n3)c(NC3CCCCC3)n2c1 [Compound 6] | –
6 | > 250 µM | > 250 µM | > 250 µM | 105 µM | 58 µM | 43.8 µM | > 250 µM | > 250 µM | > 250 µM | – | – | – | – | – | – | CC(C)(C)Nc1c(-c2c[nH]c3ncccc23)nc2ccccn12 [Compound 7] | –
7 | – | – | – | – | – | – | – | – | – | × | ? | ✓ | ✓ | ✓ | ✓ | Cn1c(=O)n(C)c2cc(CNCCc3ccc(S(N)(=O)=O)cc3)ccc21 [Compound 8] | –
8 | – | – | – | – | – | – | – | – | – | × | × | ✓ | ✓ | × | ✓ | O=C(CN1CCOC(c2cncc(-c3cccc(F)c3)n2)C1)NCc1ccccn1 (stereo not drawn) [Compound 9] | –
9 | – | – | – | – | – | – | – | – | – | ✓ | ✓ | ✓ | ✓ | ✓ | ✓ | O=C(Nc1ccccc1)Nc1ccc2cccnc2c1 [Compound 10] | –
10 | – | – | – | – | – | – | – | – | – | ✓ | ✓ | ✓ | ✓ | ✓ | ✓ | Cc1cc2c(NC(=O)Nc3ccccc3)cccc2nn1 [Compound 11] | –
11 | – | – | – | – | – | – | – | – | – | – | – | – | – | – | – | CCCOc1cc(OCCCCN(C)C)cc(Oc2cc3c(cc2NS(=O)(=O)c2ccc(OC)c(OC)c2)n(C)c(=O)n3C)c1 [IACS-9571] | Kd [1]: 0.014 µM
